Assay results taken from patent US5045566A, “Novel imidate insecticides” (ICI Americas Inc., priority 1989, dated 1991).

Key:
Type in all cases: in vivo
[1] = test system: Black Bean Aphid [Aphis fabae (Scop.)]; test: Black bean aphid spray test on nasturtium (BBA), 48 hours; conditions: percent of test compound in sprayed solution
In short: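 LC50, given as percent test compound in the sprayed liquid, was calculated from dosage-mortality curves using concentrations from 0.05% downward. Sprays in 50:50 acetone-water went to runoff on ~5 cm nasturtiums carrying 25-50 aphids of mixed ages, one day after infestation. Deaths were counted 48 h later under greenhouse conditions.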

[2] = test system: Tobacco Budworm [Heliothis virescens (Fabricius)] eggs; test: Tobacco budworm eggs (TBW-E); conditions: percent in solution; 2-day old eggs
In short: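 Paper-towel patches of 2-day-old eggs dipped in acetone solutions of compound (0.1% downward), held on larval rearing medium at 78° F. Mortality scored once all control eggs had hatched and larvae were feeding; LC50 from dosage-mortality curves, expressed as percent compound in solution.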

[3] = test system: Housefly [Musca domestica]; test: Housefly contact mortality in dishes (HF), 48 hours; conditions: μg of test compound per 25 female flies
In short: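 LC50 (μg compound per 25 female flies) derives from dosage-mortality curves of 48 h kill. Flies, females 1-2 days old, were held 25 per cage over a dish coated with dried acetone deposit, starting at 100 μg per cage and descending.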

[4] = test system: Maize weevil [Sitophilus zeamais (Motschulsky)]; test: Maize weevil on dipped corn seeds (MW), 48 hours; conditions: percent in solution, adult weevils
Protocol: The compounds in Tables 1 and 2 above were tested for insecticidal activity using the following testing procedures. LC50 values, based on the results of these tests and calculated according to dosage-mortality curves, are expressed in Table 3.
Maize weevil [Sitophilus zeamais (Motschulsky)]:
Test compounds were diluted in a 50:50 acetone:water solution. Four corn seeds [Zea mays (L.)] which had been immersed in test solutions for 2-3 seconds and allowed to dry were placed in containers together with 10 adult weevils. The containers were covered and kept at a temperature of about 25° C. Mortality was recorded after 48 hours. Test concentrations ranged from 0.01% down to that at which 50% mortality occurred. The LC50 values are expressed below in Table 3 under the heading "MW" in terms of percent of the test compound in solution.

[5] = test system: Cabbage Looper [Trichoplusia ni (Hubner)]; test: Cabbage looper leaf dip (CL), 3-5 days; conditions: percent in solution, second-instar larvae
In short: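 Squash cotyledons dipped 2-3 s in compound in 50-50 acetone-water, dried, then infested with 5 second-instar larvae and held at high humidity. Mortality scored after 3-5 days at concentrations from 0.1% downward. LC50 from dosage-mortality curves, expressed as percent compound in solution.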

SMILES	LC50 BBA [1]	LC50 TBW E (eggs) [2]	LC50 HF [3]	LC50 MW [4]	LC50 CL [5]
COc1ccc(Oc2cccc(COC(=Nc3ccc(C(C)(C)C)cc3)C(C)C)c2)cc1 [Compound 345]	0.006%	> 0.1%	> 100 µg	> 0.01%	0.018%
CCOc1ccc(N=C(OCc2cccc(Oc3ccccc3)c2)C(C)C)cc1Cl [Compound 368]	0.001%	0.04%	< 100 µg	> 0.01%	0.002%
CCOc1ccc(N=C(OCc2cccc(Oc3ccccc3)c2)C(C)C)cc1 [Compound 371]	0.0004%	> 0.1%	< 100 µg	> 0.01%	0.0022%
CCOc1ccc(N=C(OCc2ccc(F)c(Oc3ccc(Cl)cc3)c2)C(C)C)cc1 [Compound 372]	0.001%	> 0.1%	> 100 µg	> 0.01%	> 0.1%
CCOc1ccc(N=C(OCc2ccc(F)c(Oc3ccccc3)c2)C(C)C)cc1 [Compound 373]	0.001%	> 0.1%	< 100 µg	> 0.01%	> 0.1%
CC(C)C(=Nc1ccc(I)c(Cl)c1)OCc1cccc(Oc2ccc(F)cc2)c1 [Compound 374]	0.0008%	0.02%	< 100 µg	> 0.01%	0.00058%
CC(C)C(=Nc1ccc(F)c(Br)c1)OCc1ccc(F)c(Oc2ccc(Cl)cc2)c1 [Compound 379]	0.0006%	0.02%	< 100 µg	> 0.01%	0.00075%
CC(C)C(=Nc1ccc(Br)c(Br)c1)OCc1ccc(F)c(Oc2ccc(F)cc2)c1 [Compound 383]	0.0006%	0.038%	< 100 µg	> 0.01%	0.00029%
CC(C)C(=Nc1ccc(Br)c(Br)c1)OCc1ccc(F)c(Oc2ccccc2)c1 [Compound 384]	0.0008%	0.025%	< 100 µg	> 0.01%	> 0.1%
CC(C)C(=Nc1ccc(I)c(Cl)c1)OCc1ccc(F)c(Oc2ccc(F)cc2)c1 [Compound 385]	> 0.05%	> 0.1%	< 100 µg	> 0.01%	> 0.1%
CC(C)C(=Nc1cccc(Br)c1)OCc1ccc(F)c(Oc2ccc(Cl)cc2)c1 [Compound 386]	0.002%	> 0.1%	< 100 µg	> 0.01%	0.0012%
CC(C)C(=Nc1ccc(Cl)c(C(F)(F)F)c1)OCc1ccc(F)c(Oc2ccccc2)c1 [Compound 388]	0.0006%	> 0.1%	< 100 µg	> 0.01%	0.0012%
CC(C)C(=Nc1cccc(I)c1)OCc1cccc(Oc2ccc(Cl)cc2)c1 [Compound 389]	0.003%	> 0.1%	< 100 µg	> 0.01%	0.00069%
CC(C)C(=Nc1cccc(Cl)c1)OCc1ccc(F)c(Oc2ccc(Cl)cc2)c1 [Compound 390]	0.0006%	0.045%	< 100 µg	> 0.01%	0.0021%
CC(C)C(=Nc1ccc(C#N)cc1)OCc1ccc(F)c(Oc2ccc(Cl)cc2)c1 [Compound 392]	0.001%	0.039%	< 100 µg	> 0.01%	0.00034%
CC(C)C(=Nc1ccc(C#N)cc1)OCc1cccc(Oc2ccc(Cl)cc2)c1 [Compound 393]	> 0.05%	> 0.1%	< 100 µg	> 0.01%	0.00037%
CC(C)C(=Nc1ccc(C#N)cc1)OCc1ccc(F)c(Oc2ccc(F)cc2)c1 [Compound 394]	0.002%	0.05%	< 100 µg	> 0.01%	0.00025%

SMILES	LC50 BBA [1]	LC50 TBW E (eggs) [2]	LC50 HF [3]	LC50 MW [4]	LC50 CL [5]
CC(C)C(=Nc1ccc(F)c(Cl)c1F)OCc1ccc(F)c(Oc2ccc(Cl)cc2)c1 [Compound 395]	0.0001%	0.018%	8.6 µg	0.004%	< 0.1%
Cc1cc(N=C(OCc2ccc(F)c(Oc3ccc(F)cc3)c2)C(C)C)ccc1F [Compound 396]	0.0002%	< 0.1%	< 100 µg	> 0.01%	0.0017%
Cc1cc(N=C(OCc2cccc(Oc3ccc(Cl)cc3)c2)C(C)C)ccc1F [Compound 397]	0.002%	< 0.1%	< 100 µg	> 0.01%	0.0019%
CC(C)C(=Nc1ccc(F)c(Br)c1)OCc1cccc(Oc2ccc(Cl)cc2)c1 [Compound 398]	0.002%	< 0.1%	< 100 µg	> 0.01%	< 0.1%
Cc1cc(N=C(OCc2ccc(F)c(Oc3ccc(Cl)cc3)c2)C(C)C)ccc1F [Compound 399]	0.0003%	0.025%	< 100 µg	> 0.01%	0.0012%
Cc1cc(N=C(OCc2ccc(F)c(Oc3ccccc3)c2)C(C)C)ccc1F [Compound 400]	0.0003%	0.025%	< 100 µg	> 0.01%	0.0007%
Cc1cccc(N=C(OCc2ccc(F)c(Oc3ccc(Cl)cc3)c2)C(C)C)c1 [Compound 401]	0.0006%	0.04%	< 100 µg	> 0.01%	0.0017%
Cc1ccc(N=C(OCc2cccc(Oc3ccc(F)cc3)c2)C(C)C)cc1Cl [Compound 402]	0.0006%	> 0.1%	< 100 µg	> 0.01%	> 0.1%
Cc1ccc(N=C(OCc2cccc(Oc3ccc(Cl)cc3)c2)C(C)C)cc1Cl [Compound 403]	0.001%	> 0.1%	< 100 µg	> 0.01%	> 0.1%
Cc1ccc(N=C(OCc2ccc(F)c(Oc3ccc(Cl)cc3)c2)C(C)C)cc1Cl [Compound 404]	0.002%	0.025%	< 100 µg	> 0.01%	> 0.1%
Cc1cccc(N=C(OCc2cccc(Oc3ccc(F)cc3)c2)C(C)C)c1 [Compound 405]	0.0025%	> 0.1%	< 100 µg	> 0.01%	> 0.1%
Cc1ccc(N=C(OCc2ccc(F)c(Oc3ccc(Cl)cc3)c2)C(C)C)cc1C [Compound 406]	0.001%	< 0.1%	< 100 µg	> 0.01%	> 0.1%
Cc1cc(N=C(OCc2ccc(F)c(Oc3ccc(Cl)cc3)c2)C(C)C)ccc1Br [Compound 407]	0.0007%	0.05%	> 100 µg	> 0.01%	> 0.1%
COc1ccc(N=C(OCc2ccc(F)c(Oc3ccc(F)cc3)c2)C(C)C)cc1Cl [Compound 408]	0.0005%	0.02%	< 100 µg	> 0.01%	0.0015%
COc1ccc(N=C(OCc2ccc(F)c(Oc3ccccc3)c2)C(C)C)cc1Cl [Compound 409]	0.0005%	0.025%	< 100 µg	> 0.01%	0.0017%
COc1ccc(N=C(OCc2ccc(F)c(Oc3ccc(Cl)cc3)c2)C(C)C)cc1Cl [Compound 410]	0.0025%	> 0.1%	< 100 µg	> 0.01%	> 0.1%
